# Results: patent US5032505A, “Inhibitors for glycosaminosyl transferase V” (Chembiomed, Ltd., priority 1988, dated 1991)
# Tests used:
# GnT-V [1] = target: T1, GnT-V (Mesocricetus auratus, UniProt A0A1U8C8T3); assay: GnT-V acceptor assay (transfer of GlcNAc from UDP-GlcNAc to synthetic acceptor); assay type: biochemical
# T1 sequence (A0A1U8C8T3 1-740): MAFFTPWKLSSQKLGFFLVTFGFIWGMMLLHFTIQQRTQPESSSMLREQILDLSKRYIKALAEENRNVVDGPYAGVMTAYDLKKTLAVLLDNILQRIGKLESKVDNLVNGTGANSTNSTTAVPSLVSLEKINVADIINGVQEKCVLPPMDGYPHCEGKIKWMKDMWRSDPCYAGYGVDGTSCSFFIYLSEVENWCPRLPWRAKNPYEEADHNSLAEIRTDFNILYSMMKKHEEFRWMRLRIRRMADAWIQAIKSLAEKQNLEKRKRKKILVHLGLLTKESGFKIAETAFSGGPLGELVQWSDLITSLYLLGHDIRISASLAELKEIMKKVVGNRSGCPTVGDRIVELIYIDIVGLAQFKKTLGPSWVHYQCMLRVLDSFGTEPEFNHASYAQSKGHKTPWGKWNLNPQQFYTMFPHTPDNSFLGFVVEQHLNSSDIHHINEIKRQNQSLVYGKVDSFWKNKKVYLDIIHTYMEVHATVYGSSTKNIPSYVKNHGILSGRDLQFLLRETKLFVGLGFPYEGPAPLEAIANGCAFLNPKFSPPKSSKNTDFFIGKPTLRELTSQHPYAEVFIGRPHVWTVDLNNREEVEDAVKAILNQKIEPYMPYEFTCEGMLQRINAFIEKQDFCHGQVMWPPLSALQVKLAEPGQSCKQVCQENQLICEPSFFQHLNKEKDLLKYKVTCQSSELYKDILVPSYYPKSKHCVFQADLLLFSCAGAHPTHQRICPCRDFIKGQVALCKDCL
# Protocol: One form of the assay is conducted by measuring the uptake of beta-GlcNAc from UDP-beta GlcNAc in the presence of the test extract by the acceptors of the invention. A variety of protocols to detect this uptake can be employed, including, for example, conjugation of the acceptor to a solid support and measuring the uptake of labeled beta-GlcNAc. An illustrative procedure is set forth, using as acceptor the trisaccharide 8-methoxycarbonyl octyl beta-GlcNAc(1-2)alpha-Man(1-6)beta-Man, in Pierce, M., et al, Biochem Biophys Res Commun (1987) 146:679-684, incorporated herein by reference. This procedure uses radiolabeled UDP-beta GlcNAc to provide a detection means for uptake of the substrate. Other protocols for measuring GnT-V using the acceptors of the invention can be adapted, for example, from the procedure used to measure the levels of GnT-V acceptor in EPO published application 134,292 to Abbott Laboratories.
# The procedure for assaying GnT-V activity is described in Tahir, S.H., et al, Can J Chem (1986) 64:1771, cited above, and incorporated herein by reference. This procedure is also described in Palcic, M. M., et al, Glycoconjugate J (1988) 5:49, and in Hindsgual, O., et al, Carbohydrate Res (1988) 173:263, both incorporated herein by reference. The latter two citations describe the results of this assay using various synthetic acceptors.
# GnT-V [2] = target: T1, GnT-V; conditions: as acceptor for GnT-V; Palcic reference; read-out: apparent Km; cited from earlier work
# B16 melanoma = conditions: literature; cited from earlier work
# tumor cells [3] = conditions: literature; cited from earlier work
# MDAY-D2 lymphoma cells = conditions: literature; cited from earlier work
# tumor cells [4] = conditions: literature; cited from earlier work; remark: listed apart in the source
molecule,measurement,setting,value
CCCCCCCCO[C@@H]1O[C@H]([C@@H](C)O[C@H]2O[C@H](CO)[C@@H](O)[C@H](O)[C@@H]2O[C@@H]2O[C@H](CO)[C@@H](O)[C@H](O)[C@H]2NC(C)=O)[C@@H](O)[C@H](O)[C@H]1O,Vmax relative to the unmethylated analog,"GnT-V [1]; as acceptor, assay of the Pierce reference",three times that of the unmethylated analog
COC(=O)CCCCCCCCO[C@@H]1O[C@H](CO[C@H]2O[C@H](CO)[C@@H](O)[C@H](O)[C@@H]2O[C@@H]2O[C@H](CO)[C@@H](O)[C@H](O)[C@H]2NC(C)=O)[C@@H](O)[C@H](O)[C@@H]1O [8-methoxycarbonyloctyl 6-O-[2-O-(2-acetamido-2-deoxy-beta-D-glucopyranosyl)-alpha-D-mannopyranosyl]-beta-D-mannopyranoside],Km,GnT-V [2],80 µM
CC(=O)N[C@H]1[C@H](O[C@@H]2[C@@H](OCC3CCCCC3)O[C@H](CO)[C@@H](O)[C@@H]2O)O[C@H](CO)[C@@H](O)[C@@H]1O [Cyclohexylmethyl 6-O-[2-O-(2-acetamido-2-deoxy-beta-D-glucopyranosyl)-alpha-D-mannopyranoside]],"ability to act as an acceptor, relative to the remaining compounds",GnT-V [1]; relative to the other five octyl trisaccharide acceptors,about 25%
COC(=O)CCCCCCCCO[C@@H]1O[C@H](CO[C@H]2O[C@H](CO)[C@@H](O)[C@H](O)[C@@H]2O)[C@@H](O)[C@H](O[C@H]2O[C@H](CO)[C@@H](O)[C@H](O)[C@@H]2O)[C@@H]1O [GnT-1 Acceptor],entry into cells,Lec8 CHO Cells,has entered the cells to some extent after 3 hr and to a greater extent after 6
O[C@H]1[C@H](O)[C@@H](O)CN2CC[C@H](O)[C@H]12 [castanospermine],organ colonization by B16 melanoma,B16 melanoma,inhibit organ colonization by B16 melanoma
CCCCCCCCO[C@@H]1O[C@H]([C@H](C)O[C@H]2O[C@H](CO)[C@@H](O)[C@H](O)[C@@H]2O[C@@H]2O[C@H](CO)[C@@H](O)[C@H](O)[C@H]2NC(C)=O)[C@@H](O)[C@H](O)[C@H]1O [proS methylated compound],effectiveness as an acceptor,GnT-V [1]; compared with the proR methylated compound,less effective as an acceptor
O[C@H]1[C@H]2[C@H](O)CCCN2C[C@H]1O [swainsonine],susceptibility of tumor cells to natural killer cells,tumor cells [3],enhance susceptibility of tumor cells to natural killer cells
same,colonization by metastatic MDAY-D2 lymphoma cells,MDAY-D2 lymphoma cells,inhibit colonization by metastatic MDAY-D2 lymphoma cells
same,tumor cell growth rate in soft agar,tumor cells [4],reduce tumor cell growth rate in soft agar
same,organ colonization by B16 melanoma,B16 melanoma,inhibit organ colonization by B16 melanoma
tunicamycin,organ colonization by B16 melanoma,B16 melanoma,inhibit organ colonization by B16 melanoma
